Where “and” joins values, the source holds several entries; their conditions need not be identical. Identical values can stand only once.

The source of these data is US20220118117A1, “MODULATORS OF METABOTROPIC GLUTAMATE RECEPTOR 4” (The General Hospital Corporation, priority 2019, published 2022).

Data set [1] is described as follows: microsomal stability. The format is in vitro ADME, Sprague-Dawley rat. Particulars: rat liver microsomes, NADPH. The procedure:
First, Sprague-Dawley rat liver microsomes (0.5 mg/mL, Sigma-Aldrich, No. M9066) was incubated with PBS (50 mM, pH=7.4) in a reaction tube at 37° C. for 3 min. To the reaction tube were added the test compound (2 μM) and then cofactor, NADPH (1 mM), to start the reaction. The mixture was shaken in a water bath at 37° C. At different time points (0, 5, 10, 15, 30 min), aliquots (50 μL) were removed and added to 100 μl of cold acetonitrile with internal standard (25 μM) to quench the reaction. The precipitated material was by centrifugation (10,000×g, 10 min, 4° C.), and the supernatant was analyzed by RP-HPLC (Column: Phenomenex Luna© 5 μm, Cis, 100 Å, 250×4.6 mm). The RP-HPLC was carried out by using a 15-min gradient method: eluent A: 0.1% formic acid/H2O; eluent B: 0.1% formic acid/CH3CN; gradient: […]; 5% B to 95% B from 1 to 9 min, 95% B from 9 to 12 min, 95% to 5% B from 12 to 13 min, 5% B from 13 to 15 min; flow rate at 0.7 mL/min.
The in peak area ratio (test compound peak area at a time point/peak area at 0 min time point) was plotted against time and the gradient of the line was determined. Subsequently, the half-life (t1/2) was calculated as 0.693/k, where the elimination rate constant k equals to −gradient. V (μL/mg) was obtained as a ratio of volume of incubation […]/protein in the incubation (mg). Finally, the intrinsic clearance (CLint) (μL/min/mg protein) was calculated as V*0.693/t1/2.
For orientation: Microsomes from liver hold many membrane-bound enzymes, among them those of drug oxidation.

Data set [2] can be described thus: Log D7.4, scaled-down shake flask method using [18F]15. The data set is classed as physicochemical. Particulars: octanol / phosphate buffer pH 7.4. The procedure: The test tube was mixed by vortex for 2 min and then centrifuged for 2 min to fully separate the aqueous and organic phase. The samples taken from the octanol layer (0.1 mL) and the aqueous layer (1.0 mL) were saved for radioactivity measurement. An additional aliquot of the octanol layer […] was carefully transferred to a new test tube containing 0.5 mL of octanol and 2.5 mL of phosphate buffer solution (pH 7.4). The previous procedure (vortex mixing, centrifugation, sampling, and transfer to the next test tube) was repeated until six sets of aliquot samples had been prepared. The radioactivity of each sample was measured using PerkinElmer Wizard2 2480 gamma-counter. The log D of each set of samples was calculated as the following:
Log D7.4=Log(radioactivity of octanol layer×10/radioactivity of PBS layer)
Lipophilicity has a major effect on BBB penetration, ADMET properties and pharmacological activity. […] The Log D7.4 of 15 was 3.82 as measured with a scaled-down shake flask method using [^18F]15 (Table 2) and is in the range normally considered favorable for a PET ligand. (Ref. 43).

Data set [3] concerns other mGlu receptors (mGluR1, mGluR5, mGluR2, mGluR3, mGluR6, mGluR8). The experiment in a line: mGluR subtype selectivity (Ca2+ mobilization and cAMP assays). The data set is classed as cell-based. To be noted: Gq coupled: Ca2+ mobilization; Gi/o coupled: cAMP assay. The procedure:
Ca^2+ mobilization assay. The Gq coupled receptors (mGluR1 and mGluR5) were tested using Ca^2+ mobilization assay. mGluR1 stable cell lines were plated into poly-L-lysine (PLL) coated 384-well black clear bottom cell culture plates with complete Basal Medium Eagle (BME) buffer, which was composed of 10% dialyzed FBS, penicillin G (100 units/mL), streptomycin (100 μg/mL) with Tetracycline (1 μg/mL) at density of 20,000 cells in 40 μl per well for overnight. […] Once loaded in FLIPR (Molecular Devices), basal fluorescence was measured for 10 s, then 10 μL of test or reference compounds were added, followed by continued fluorescence measurement for an additional 120 s. […]
cAMP assay. […] Luminescence was counted in a Trilux luminescence counter. Data were analyzed with Prizm 5.0 (GraphPad software).
The selectivity of 15 was also analyzed among the various mGluR subtypes, in which the Gq coupled receptors (mGluR1 and mGluR5) were tested using Ca^2+ mobilization assay and the Gi/o coupled receptors (mGluR2, mGluR3, mGluR4, mGluR6 and mGluR8) using the cAMP assay.
(Calcium flux is commonly read through the fluorescence of an indicator in the cells.)

`[2H]C([2H])(F)Sc1cc(NC(=O)c2ccccn2)ccc1Cl` [Compound 15, N-(4-Chloro-3-((fluoromethyl-d2)thio)phenyl)picolinamide]: the “The microsome stability t1/2” value in data set [1] was 57.258 min and 57.3 min. Besides, the “Log D7.4” value in data set [2] came to 3.82. Further, in data set [3], the “selectivity among mGluR subtypes” value was “has selectivity against other mGlu receptors”.
